The IC50 is the midpoint of a concentration-inhibition curve.

Where a SMILES comes first, the peptide text is derived from it.

The target of the experiment is T1, HLA‐A2 (Homo sapiens, UniProt P04439, D140Y/D185E/D98H/E176V/E277Q/G131W/G231S/I119V/I121R/I166T/I218V/L300P/L318F/N151K/N90K/P208A/P217A/Q86G/Q94H/R138H/R169H/T345S).
T1 construct: host or cells: BSM cells (HLA-A2+, HPV16-negative suspension cell line)
The experiment in a line: In vitro competition-based cellular binding assay. Particulars: acid-stripped BSM cells, β2M, 150 nM fluorescein-labeled reference peptide FLPSDC(Fl)FPSV, test peptide 0.78–100 μM, overnight 4 °C, flow cytometry; mean of at least three experimental replicates; read-out: Experimental binding affinity [IC50(μM)]. The method, then: In Vitro Competition Based Binding Assays: In vitro competition‐based binding assays were performed as described in ref. 30. In brief, BSM cells were treated with citric acid buffer to strip off naturally presented peptides. Cells were incubated overnight at 4 °C with β2M, a constant concentration (150 nM) of fluorescein‐labeled HLA‐A2‐binding reference peptide (FLPSDC(Fl)FPSV), and six different concentrations (0.78 –100 μM) of the respective investigated non‐labeled peptide, competing for HLA‐binding. Fluorescence was measured by flow cytometry and data processed with FlowJo 10 (TreeStar, Ashland, OR, USA). A logistic four‐parametric non‐linear regression calculation using SigmaPlot 13 (Systat‐Software, San José, CA, USA) was conducted to calculate binding affinity (IC50). […] The assay was performed with at least three biological replicates for binders and two for non‐binders.
(In flow cytometry, cells or beads pass a laser one at a time.)
Take `CSCC[C@H](NC(=O)[C@H](Cc1ccc(O)cc1)NC(=O)[C@@H](N)CCC(=O)O)C(=O)N[C@@H](CC(C)C)C(=O)N[C@@H](CC(=O)O)C(=O)N[C@@H](CC(C)C)C(=O)N[C@@H](CCC(N)=O)C(=O)N1CCC[C@H]1C(=O)N[C@@H](CCC(=O)O)C(=O)N[C@H](C(=O)O)[C@@H](C)O` [E7_10–19]: the IC50 was found to be 45.3 µM.

In the case of `CC[C@H](C)[C@H](NC(=O)CNC(=O)[C@H](CC(C)C)NC(=O)[C@@H](NC(=O)CNC(=O)[C@H](CCSC)NC(=O)[C@H](CC(C)C)NC(=O)[C@H](CC(C)C)NC(=O)[C@@H](N)CC(=O)O)[C@@H](C)O)C(=O)N[C@H](C(=O)O)C(C)C` [E7_81–90] (H-DLLMGTLGIV-OH), the concentration for half-maximal inhibition (IC50) amounted to 81 µM.

`CSCC[C@H](NC(=O)[C@H](CC(C)C)NC(=O)[C@H](CC(C)C)NC(=O)[C@H](CC(=O)O)NC(=O)[C@H](CCC(=O)O)NC(=O)[C@H](CC(C)C)NC(=O)[C@@H](NC(=O)[C@@H](N)CCCNC(=N)N)[C@@H](C)O)C(=O)NCC(=O)N[C@H](C(=O)N[C@@H](CC(C)C)C(=O)O)[C@@H](C)O` [E7_77–87] (H-RTLEDLLMGTL-OH): the IC50 came to 2.69 µM.

Take `CSCC[C@H](NC(=O)[C@H](Cc1ccc(O)cc1)NC(=O)[C@H](CCC(=O)O)NC(=O)[C@H](Cc1c[nH]cn1)NC(=O)[C@H](CC(C)C)NC(=O)[C@@H](N)[C@@H](C)O)C(=O)N[C@@H](CC(C)C)C(=O)N[C@@H](CC(=O)O)C(=O)N[C@@H](CC(C)C)C(=O)N[C@@H](CCC(N)=O)C(=O)N1CCC[C@H]1C(=O)O` [E7_7–17] (H-TLHEYMLDLQP-OH): the IC50 was found to be 19.3 µM.

Regarding `CC[C@H](C)[C@H](N)C(=O)N[C@@H](CCCNC(=N)N)C(=O)N[C@H](C(=O)N[C@@H](CC(C)C)C(=O)N[C@@H](CCC(=O)O)C(=O)N[C@@H](CC(=O)O)C(=O)N[C@@H](CC(C)C)C(=O)N[C@@H](CC(C)C)C(=O)N[C@@H](CCSC)C(=O)NCC(=O)N[C@H](C(=O)O)[C@@H](C)O)[C@@H](C)O` [E7_76–86] (H-IRTLEDLLMGT-OH), the IC50 was determined as 31.9 µM.

Regarding `CC[C@H](C)[C@H](NC(=O)[C@H](CC(=O)O)NC(=O)[C@H](Cc1c[nH]cn1)NC(=O)[C@@H](NC(=O)[C@@H](NC(=O)[C@@H](NC(=O)[C@H](CCC(N)=O)NC(=O)[C@H](CC(C)C)NC(=O)[C@@H](N)CCC(=O)O)[C@@H](C)O)[C@@H](C)O)[C@@H](C)CC)C(=O)O` [E6_25–33] (H-ELQTTIHDI-OH), the IC50 was determined as 36.9 µM.

For the compound `CSCC[C@H](N)C(=O)N[C@@H](CC(C)C)C(=O)N[C@@H](CC(=O)O)C(=O)N[C@@H](CC(C)C)C(=O)N[C@@H](CCC(N)=O)C(=O)N1CCC[C@H]1C(=O)N[C@@H](CCC(=O)O)C(=O)N[C@H](C(=O)O)[C@@H](C)O` [E7_12–19] (H-MLDLQPET-OH), the half-maximal inhibitory concentration (IC50) was 53.7 µM.

Consider `CSCC[C@H](NC(=O)[C@@H](N)Cc1ccc(O)cc1)C(=O)N[C@@H](CC(C)C)C(=O)N[C@@H](CC(=O)O)C(=O)N[C@@H](CC(C)C)C(=O)N[C@@H](CCC(N)=O)C(=O)N1CCC[C@H]1C(=O)N[C@@H](CCC(=O)O)C(=O)O` [E7_11–18] (H-YMLDLQPE-OH), for which the IC50 came to 8.07 µM.

As for `CC[C@H](C)[C@H](NC(=O)CNC(=O)[C@H](CC(C)C)NC(=O)[C@@H](NC(=O)CNC(=O)[C@H](CCSC)NC(=O)[C@H](CC(C)C)NC(=O)[C@H](CC(C)C)NC(=O)[C@H](CC(=O)O)NC(=O)[C@@H](N)CCC(=O)O)[C@@H](C)O)C(=O)N[C@H](C(=O)O)C(C)C` [E7_80–90] (H-EDLLMGTLGIV-OH), the IC50 stood at 14.2 µM.

In the case of `CSCC[C@H](NC(=O)[C@@H](N)Cc1ccc(O)cc1)C(=O)N[C@@H](CC(C)C)C(=O)N[C@@H](CC(=O)O)C(=O)N[C@@H](CC(C)C)C(=O)N[C@@H](CCC(N)=O)C(=O)N1CCC[C@H]1C(=O)N[C@@H](CCC(=O)O)C(=O)N[C@H](C(=O)N[C@H](C(=O)N[C@@H](CC(=O)O)C(=O)O)[C@@H](C)O)[C@@H](C)O` [E7_11–21], the IC50 stood at 2.37 µM.

On to `CSCC[C@H](NC(=O)[C@H](CC(C)C)NC(=O)[C@H](CC(C)C)NC(=O)[C@H](CC(=O)O)NC(=O)[C@H](CCC(=O)O)NC(=O)[C@H](CC(C)C)NC(=O)[C@@H](NC(=O)[C@@H](N)CCCNC(=N)N)[C@@H](C)O)C(=O)NCC(=O)N[C@H](C(=O)O)[C@@H](C)O` [E7_77–86], for which the IC50 came to 66.9 µM.

Take `CSCC[C@H](NC(=O)[C@H](CC(C)C)NC(=O)[C@H](CC(C)C)NC(=O)[C@H](CC(=O)O)NC(=O)[C@H](CCC(=O)O)NC(=O)[C@H](CC(C)C)NC(=O)[C@@H](N)[C@@H](C)O)C(=O)NCC(=O)N[C@H](C(=O)O)[C@@H](C)O` [E7_78–86] (H-TLEDLLMGT-OH): the IC50 is 64.6 µM.
